In patent publication US9321735B2, “Insecticidal triazines and pyrimidines” (Vestaron Corporation, priority 2010, dated 2016):

System: beet army worm (Spodoptera exigua)
Experiment: Insecticidal test for beet armyworm (diet surface treatment, larval mortality)
Assay type: in vivo
Details: 100 μg/cm^2 on diet surface; first instar larvae, 32 insects per treatment; observations 24, 48 and 96 hours after treatment
Procedure: The compounds identified in Table 8 were prepared according to the previous methods and were tested against beet armyworm and corn earworm as follows:
Insecticidal Test for Beet Armyworm (Spodoptera Exigua).
To prepare the test solution, the test compound was Formulated at 3499 ppm in solution as 5 mg compound/1.429 mL of 9 parts acetone: 1 part deionized H2O and vortexed to homogenize. 50 μL of the 3499 ppm (equivalent to 100 μg/cm^2 dose on diet surface area) test solution was pipetted upon the surface of 1 mL of solidified cool Southland Products Incorporated Beet Armyworm Diet (201 Stuart Island Road Lake Village, Ark. 71653) using an Eppendorf Repeater Plus with a 1 mL pipette tip. All pipetting of treatments was done in a Labconco Hood. Thirty minutes were allowed for the acetone to evaporate leaving a dose of 100 μg/cm^2 on the surface of the artificial diet. Two 24 hour old first instar Beet Armyworm(Spodoptera Exigua) larvae were placed in each well of the 128 well Bio-BA 128 Bioassay trays (CD International, Pitman, N.J., 08071, USA) using a #0 fine camel hair paint brush. Bioassay trays were sectioned into treatment groups of 8 with 16 replicates per treatment group (32 insects per treatment). […] The number of insects dead were counted out of the 32 insects total per treatment and the results are given in a table as a percent mortality at a dose of 100 μg/cm^2. […]

For Fc1cccc(Cl)c1-c1nc(NN=Cc2ccc(C(F)(F)F)cc2)nc(Nc2ccc(Cl)nc2)n1 [Example 51, 4-(2-chloro-6-fluorophenyl)-N-(6-chloropyridin-3-yl)-6-(2-(4-(trifluoromethyl)benzylidene)hydrazinyl)-1,3,5-triazin-2-amine], the Mortality was “A (A=76-100% mortality)”.
